Drawing on patent US10329309B2, “3-(3H-imidazo[4,5-B]pyridin-2-yl)-1H-pyrazolo[4,3-B]pyridines and therapeutic uses thereof” (Samumed, LLC, priority 2015, dated 2019), this text covers EC50 and inhibition for 20 compounds.

In one assay the test system is IL-6 (THP-1 cells). The assay can be described thus: Inhibition of IL-6 in LPS-stimulated THP-1 monocytes (HTRF). It counts as cell-based. Particulars: Homo sapiens; for EC50: LPS 500 ng/mL, IL-6 by HTRF; for inhibition at 10 µM: LPS stimulated, IL-6, at 10 μM, read-out: percent inhibition at 10 μM (given for EC50 of >10 μM). The method in brief: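 THP-1 cells, serum-starved in 1% FBS for 24 h, were pre-incubated 2 h with compound (10-point, 1:3 from 10 μM, 0.1% DMSO), then stimulated with 500 ng/mL LPS for 22 h at 37 °C. IL-6 was quantified by HTRF 665/620 ratio. EC50 was fitted from DMSO-normalized data; above 10 μM, % inhibition at 10 μM is given.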
In general terms: TR-FRET usually uses a lanthanide donor and a delayed reading to cut background.

For assay [1], the system named is primary human fibroblasts derived from IPF patients (LL29 cells), α-smooth muscle actin (αSMA). The assay is described as follows: Inhibition of the fibrotic process: TGF-β1-treated primary human fibroblasts from IPF patients, αSMA staining. As to conditions: Fibroblast, 96 h, 4 days; for EC50: LL29 fibroblasts from IPF patients, TGF-β1 20 ng/mL, inhibition of fibrotic process; for inhibition at 10 µM: LL29 fibroblasts, TGF-β1 treated, read-out: percent inhibition at 10 μM (given for EC50 of >10 μM). It counts as cell-based. An outline of the steps:
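Compound dilutions from 10 μM down to […] are dispensed, LL29 cells added in F12 with 1% FBS, and TGF-β1 (20 ng/mL) follows after 1 h. After 4 days, live-cell αSMA positivity is measured by immunofluorescence and normalized to TGF-β1-treated wells to derive EC50.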

Where only a bound is given, the exact number is not on record here.

A word on the EC50: it is the midpoint of the concentration-response curve. A higher EC50 goes with a less potent agent. `CC(C)CC(=O)Nc1cncc(-c2ccc3[nH]nc(-c4nc5c(-c6ccc(Cl)s6)ccnc5[nH]4)c3n2)c1` [Compound 1037, N-(5-(3-(7-(5-chlorothiophen-2-yl)-3H-imidazo[4,5-b]pyridin-2-yl)-1H-pyrazolo [4,3-b]pyridin-5-yl)pyridin-3-yl)-3-methylbutanamide]: the EC50 in the assay on IL-6 (THP-1 cells) worked out at 5.05 µM; in assay [1], 0.511 µM.

Turning to `CN(C)CCOc1cncc(-c2ccc3[nH]nc(-c4nc5c(-c6cccc(F)c6)ccnc5[nH]4)c3n2)c1` [Compound 515, 2-((5-(3-(7-(3-fluorophenyl)-3H-imidazo[4,5-b]pyridin-2-yl)-1H-pyrazolo[4,3-b]pyridin-5-yl)pyridin-3-yl)oxy)-N,N-dimethylethan-1-amine], the EC50 amounted to 5.54 µM with IL-6 (THP-1 cells) and 2.61 µM in assay [1].

What is called inhibition is the share of the control response that was lost under treatment. Take `Cc1ncc(-c2ccc3[nH]nc(-c4nc5c(-c6cccc(F)c6)ccnc5[nH]4)c3n2)n1C` [Compound 509, 5-(1,2-dimethyl-1H-imidazol-5-yl)-3-(7-(3-fluorophenyl)-3H-imidazo[4,5-b]pyridin-2-yl)-1H-pyrazolo[4,3-b]pyridine]: in the assay with IL-6 (THP-1 cells), the EC50 is greater than 10 µM and the inhibition at 10 µM was 17.5%. In assay [1], the EC50 is greater than 10 µM and the inhibition at 10 µM stood at 0%.

Turning to `CN(C)CC(=O)Nc1cncc(-c2ccc3[nH]nc(-c4nc5c(-c6cccc(F)c6)ccnc5[nH]4)c3n2)c1` [Compound 969, 2-(dimethylamino)-N-(5-(3-(7-(3-fluorophenyl)-3H-imidazo[4,5-b]pyridin-2-yl)-1H-pyrazolo[4,3-b]pyridin-5-yl)pyridin-3-yl)acetamide], in the assay with IL-6 (THP-1 cells), the EC50 is greater than 10 µM and the inhibition at 10 µM was determined as 26.3%. Besides, a half-maximal effect in assay [1] (EC50) was put at 4.93 µM.

As for `CN(C)Cc1cncc(-c2ccc3[nH]nc(-c4nc5c(-c6cccs6)ccnc5[nH]4)c3n2)c1` [Compound 349, N,N-dimethyl-1-(5-(3-(7-(thiophen-2-yl)-3H-imidazo[4,5-b]pyridin-2-yl)-1H-pyrazolo[4,3-b]pyridin-5-yl)pyridin-3-yl)methanamine], the EC50 in the assay on IL-6 (THP-1 cells) was found to be 4.78 µM; in assay [1], 1.42 µM.

As for `COc1cccc(-c2ccnc3[nH]c(-c4n[nH]c5ccc(-c6cncc(NC(=O)Cc7ccccc7)c6)nc45)nc23)c1` [Compound 1000, N-(5-(3-(7-(3-methoxyphenyl)-3H-imidazo[4,5-b]pyridin-2-yl)-1H-pyrazolo[4,3-b]pyridin-5-yl)pyridin-3-yl)-2-phenylacetamide], the EC50 (in the assay with IL-6 (THP-1 cells); in assay [1]) was greater than 10 µM each time. The inhibition at 10 µM was 12.3% in the assay on IL-6 (THP-1 cells) and 23.4% in assay [1].

`CC(C)Nc1cncc(-c2ccc3[nH]nc(-c4nc5c(-c6cccnc6)ccnc5[nH]4)c3n2)c1` [Compound 96, N-isopropyl-5-(3-(7-(pyridin-3-yl)-3H-imidazo[4,5-b]pyridin-2-yl)-1H-pyrazolo[4,3-b]pyridin-5-yl)pyridin-3-amine]: the EC50 with IL-6 (THP-1 cells) came to 0.424 µM; in assay [1], 1.77 µM.

For `COc1cncc(-c2ccc3[nH]nc(-c4nc5c(-c6cccc(F)c6)ccnc5[nH]4)c3n2)c1` [Compound 516, 3-(7-(3-fluorophenyl)-3H-imidazo[4,5-b]pyridin-2-yl)-5-(5-methoxypyridin-3-yl)-1H-pyrazolo[4,3-b]pyridine], the EC50 worked out at 8.23 µM in the assay with IL-6 (THP-1 cells) and 1.57 µM in assay [1].

For `NC1CN(c2cncc(-c3ccc4[nH]nc(-c5nc6c(-c7ccc(Cl)s7)ccnc6[nH]5)c4n3)n2)C1` [Compound 1068, 1-(6-(3-(7-(5-Chlorothiophen-2-yl)-3H-imidazo[4,5-b]pyridin-2-yl)-1H-pyrazolo[4,3-b]pyridin-5-yl)pyrazin-2-yl)azetidin-3-amine], the values for the EC50 (in the assay with IL-6 (THP-1 cells); in assay [1]) were 1.77 µM and 0.938 µM, respectively.

`CCCCC(=O)Nc1cncc(-c2ccc3[nH]nc(-c4nc5c(-c6ccoc6)ccnc5[nH]4)c3n2)c1` [Compound 327, N-(5-(3-(7-(furan-3-yl)-3H-imidazo[4,5-b]pyridin-2-yl)-1H-pyrazolo[4,3-b]pyridin-5-yl)pyridin-3-yl)pentanamide]: the results for the EC50 (in the assay with IL-6 (THP-1 cells); in assay [1]) were greater than 10 µM and 0.277 µM, respectively. In addition, the inhibition at 10 µM in the assay on IL-6 (THP-1 cells) is 42.4%.

In the case of `CN(C)c1cncc(-c2ccc3[nH]nc(-c4nc5c(-c6cccc(F)c6)ccnc5[nH]4)c3n2)c1` [Compound 7, 5-(3-(7-(3-fluorophenyl)-3H-imidazo[4,5-b]pyridin-2-yl)-1H-pyrazolo[4,3-b]pyridin-5-yl)-N,N-dimethylpyridin-3-amine], the EC50 in the assay on IL-6 (THP-1 cells) is 7.5 µM; in assay [1], 2.17 µM.

On to `CN(C)Cc1cncc(-c2ccc3[nH]nc(-c4nc5c(-c6cccc(F)c6)ccnc5[nH]4)c3n2)c1` [Compound 13, 1-(5-(3-(7-(3-fluorophenyl)-3H-imidazo[4,5-b]pyridin-2-yl)-1H-pyrazolo [4,3-b]pyridin-5-yl)pyridin-3-yl)-N,N-dimethylmethanamine], for which the EC50 came out at 5.93 µM in the assay with IL-6 (THP-1 cells) and 1.44 µM in assay [1].

`NC1CN(c2cncc(-c3ccc4[nH]nc(-c5nc6c(-c7cccc(F)c7)ccnc6[nH]5)c4n3)n2)C1` [Compound 510, 1-(6-(3-(7-(3-fluorophenyl)-3H-imidazo[4,5-b]pyridin-2-yl)-1H-pyrazolo[4,3-b]pyridin-5-yl)pyrazin-2-yl)azetidin-3-amine]: a half-maximal effect with IL-6 (THP-1 cells) (EC50) was put at 0.023 µM. In assay [1], the EC50 is greater than 10 µM and the inhibition at 10 µM was 0%.

Turning to `CCCC(=O)Nc1cncc(-c2ccc3[nH]nc(-c4nc5c(-c6ccsc6)ccnc5[nH]4)c3n2)c1` [Compound 297, N-(5-(3-(7-(thiophen-3-yl)-3H-imidazo[4,5-b]pyridin-2-yl)-1H-pyrazolo[4,3-b]pyridin-5-yl)pyridin-3-yl)butyramide], the EC50 in the assay on IL-6 (THP-1 cells) amounted to 9.91 µM; in assay [1], 0.41 µM.

Consider `Cc1ccc(-c2ccnc3[nH]c(-c4n[nH]c5ccc(-c6cncc(NC(=O)C(C)C)c6)nc45)nc23)s1` [Compound 401, N-(5-(3-(7-(5-methylthiophen-2-yl)-3H-imidazo[4,5-b]pyridin-2-yl)-1H-pyrazolo[4,3-b]pyridin-5-yl)pyridin-3-yl)isobutyramide], for which the results for the EC50 (in the assay with IL-6 (THP-1 cells); in assay [1]) were 0.161 µM and 0.158 µM, respectively.

On to `O=C(Nc1cncc(-c2ccc3[nH]nc(-c4nc5c(-c6ccc(F)cc6)ccnc5[nH]4)c3n2)c1)C1CCC1` [Compound 49, N-(5-(3-(7-(4-fluorophenyl)-3H-imidazo[4,5-b]pyridin-2-yl)-1H-pyrazolo [4,3-b]pyridin-5-yl)pyridin-3-yl)cyclobutanecarboxamide], for which, in the assay on IL-6 (THP-1 cells), the EC50 was greater than 10 µM and the inhibition at 10 µM was 44%. Moreover, a half-maximal effect in assay [1] (EC50) was put at 1.37 µM.

`FC1(F)CCN(Cc2cncc(-c3ccc4[nH]nc(-c5nc6c(-c7ccsc7)ccnc6[nH]5)c4n3)c2)C1` [Compound 306, 5-(5-((3,3-difluoropyrrolidin-1-yl)methyl)pyridin-3-yl)-3-(7-(thiophen-3-yl)-3H-imidazo[4,5-b]pyridin-2-yl)-1H-pyrazolo[4,3-b]pyridine]: the EC50 stood at 1.33 µM in the assay on IL-6 (THP-1 cells) and 0.165 µM in assay [1].

Regarding `CC(C)(C)CC(=O)Nc1cncc(-c2ccc3[nH]nc(-c4nc5c(-c6ccccc6F)ccnc5[nH]4)c3n2)c1` [Compound 72, N-(5-(3-(7-(2-fluorophenyl)-3H-imidazo[4,5-b]pyridin-2-yl)-1H-pyrazolo [4,3-b]pyridin-5-yl)pyridin-3-yl)-3,3-dimethylbutanamide], in the assay with IL-6 (THP-1 cells), the EC50 is greater than 10 µM and the inhibition at 10 µM turned out to be 27.8%. In assay [1], the EC50 was greater than 10 µM and the inhibition at 10 µM stood at 0%.

`Fc1cccc(-c2ccnc3[nH]c(-c4n[nH]c5ccc(C6=CCNCC6)nc45)nc23)c1` [Compound 506, 3-(7-(3-fluorophenyl)-3H-imidazo[4,5-b]pyridin-2-yl)-5-(1,2,3,6-tetrahydropyridin-4-yl)-1H-pyrazolo[4,3-b]pyridine]: in the assay with IL-6 (THP-1 cells), the half-maximal effective concentration (EC50) was greater than 10 µM and the inhibition at 10 µM was 27.9%. Moreover, in assay [1], the EC50 was greater than 10 µM and the inhibition at 10 µM amounted to 0%.

Regarding `COc1cccc(-c2ccnc3[nH]c(-c4n[nH]c5ccc(-c6cncc(NC(=O)C7CCCCC7)c6)nc45)nc23)c1` [Compound 1012, N-(5-(3-(7-(3-Methoxyphenyl)-3H-imidazo[4,5-b]pyridin-2-yl)-1H-pyrazolo [4,3-b]pyridin-5-yl)pyridin-3-yl)cyclohexanecarboxamide], in the assay on IL-6 (THP-1 cells), the EC50 was greater than 10 µM and the inhibition at 10 µM is 43.3%. The compound also returned an EC50 in assay [1] of 1.17 µM.
